Entries after “also recorded” stand apart in the source; their conditions may differ. One block for each molecule: values may come before it.
Columns and labels:
[1] = tested on: Bcl-xL WT and Bcl-xL R139A; test: split-luciferase assay, Bcl-xL 209 R139A side-by-side with wild-type parent; assay type: cell-based, human; conditions: α3-α4 split site, 50 nM ligand, 5 ng of each FLuc construct (FIG. 3)
Protocol: Low passage (≤25) cells were seeded onto T-75 (Fisher) flasks at 1E6 cells per mL and grown for 24 hours in complete media. Transient transfections were performed using PolyJet (SignaGen). 96-well culture plates were coated with 50 μL/well of 50 μg/mL solution of poly-D-lysine (MilliPore) and incubated at 4C overnight. Cells were transfected for ˜16 h, then were trypsinized and quantified. Cells were plated onto coated 96-well plates at 1E4 cells/well in DMEM supplemented with 0.5% v/v FBS. Treatment was dissolved in DMSO and added to a final DMSO concentration of 0.05% by volume. Cells were grown in treatment media for 24 h before being lysed with an in-house detergent-based buffer. Cell lysis was clarified via centrifugation, and 50 μL of clarified lysate was plated per well on a white U-bottom luminescence plate. 80 μL of L-GLO was added to each well, and the plate was incubated at room temperature for 25-40 minutes before luminescence was read on a Centro XS3 LB960 (Berthold Technologies) microplate luminometer. Separately, clarified lysate was quantified using a Micro-BCA kit (Pierce), and luminescence was normalized to RLU per microgram of total protein using Microsoft Excel. All data presented were plotted using Kaleidagraph (Synergy) 3.5.

Bcl-xL 209 R139A = biological target: T1, Bcl-xL 209 R139A (Homo sapiens, UniProt Q07817, R139A); test: split-luciferase complementation assay of split Bcl-xL 209 R139A in HEK293T cells; assay type: cell-based; conditions: split-luciferase signal
T1 construct: expressed in transfected cells; host or cells: HEK293T
T1 sequence (Q07817 113-209 R139A, one chain of several): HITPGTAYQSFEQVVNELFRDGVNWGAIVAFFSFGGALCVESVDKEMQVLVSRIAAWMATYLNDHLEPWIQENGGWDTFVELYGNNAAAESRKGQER
Description: (§1) To design split Bcl-xL, a suitable readout was required to measure successful ligand-dependent reassembly. A split-luciferase complementation assay was used, which was originally identified by rapamycin-induced complementation of FKBP and FRB. The split protein constructs were designed such that split-firefly luciferase-dependent luminescence would only be generated upon dimerization of N-Bcl-xL and C-Bcl-xL fragments […] (FIG. 2A). The split-protein constructs were created for each of the Bcl-xL split sites (FIG. 2B) and tested by transient transfection into HEK293T cells with the addition of either a Bcl-xL ligand or DMSO.
Low passage (≤25) cells were seeded onto T-75 (Fisher) flasks at 1E6 cells per mL and grown for 24 hours in complete media. […] Cells were transfected for ˜16 h, then were trypsinized and quantified. […] Cell lysis was clarified via centrifugation, and 50 μL of clarified lysate was plated per well on a white U-bottom luminescence plate. 80 μL of L-GLO was added to each well, and the plate was incubated at room temperature for 25-40 minutes before luminescence was read on a Centro XS3 LB960 (Berthold Technologies) microplate luminometer. Separately, clarified lysate was quantified using a Micro-BCA kit (Pierce), and luminescence was normalized to RLU per microgram of total protein using Microsoft Excel. […]

Bcl-xL = Bcl-xL (Homo sapiens, UniProt Q07817); conditions: in the literature; cited from earlier work
Chain of Bcl-xL (Q07817 whole entry): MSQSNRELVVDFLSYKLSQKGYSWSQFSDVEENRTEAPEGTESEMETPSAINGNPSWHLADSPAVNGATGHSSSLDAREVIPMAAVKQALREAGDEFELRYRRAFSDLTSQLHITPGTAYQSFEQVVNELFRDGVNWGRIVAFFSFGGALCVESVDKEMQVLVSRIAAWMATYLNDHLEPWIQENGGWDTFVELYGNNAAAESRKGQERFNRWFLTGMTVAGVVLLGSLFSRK

[2] = tested on: split-Src controlled by split Bcl-xL; test: anti-phosphotyrosine western blot of split-Src controlled by split Bcl-xL in HEK293T cells; assay type: cell-based, human; conditions: for global tyrosine phosphorylation: N-Bcl-xL 1-112 / C-Bcl-XL WT 113-209 split-Src, 10 µM ligand vs DMSO
Protocol: The most ligand-responsive fragments, N-Bcl-xL 1-112 and C-Bcl-XL WT 113-209, were cloned into existing full-length split-Src constructs. N-Bcl-xL was attached via a 25-residue linker to the N-terminus of N-Src. C-Bcl-XL WT was attached via a 25-residue linker to C-Src Y530F (FIG. 4A). Each split-kinase system was tested in HEK293T cells via transient transfection and treated with either DMSO or 10 µM of Bcl-xL ligands A-1155463, ABT-263, or ABT-737. […] More importantly, this novel CID system can likely be used in combination with the three existing CID systems to generate additional layers of control in cells for controlling pathways with externally added small molecules. For example, a split kinase and a corresponding split phosphatase may be used in conjunction with a split target protein (e.g., as described herein) to examine any given phosphorylation pathway in a cell. In some embodiments, the split target protein may be either upstream or downstream of a phosphorylation cascade (e.g., the split kinase). The aforementioned system would allow precise signaling studies to be undertaken by titration of two or more ligands (e.g., small molecules; e.g., one ligand for each split protein in the system).

[3] = tested on: split-Src controlled by the ABI/PYL CID system; test: anti-phosphotyrosine western blot of split-Src controlled by the ABI/PYL CID system; assay type: cell-based; conditions: for phosphorylation / kinase activity of ABI/PYL split-Src with CID alone: abscisic acid CID alone
Protocol: It was hypothesized that there might be off-target kinase inhibition by ABT-263, which is not present in the other ligands tested. To interrogate this potential off-target kinase inhibition, an orthogonal split-Src construct design was employed with ABI and PYL domains and the CID, abscisic acid. The split-Src was tested as fragments without CID, fragments with CID, and fragments with CID plus ABT-263.

[4] = biological target: T2, C-Bcl-XL WT 113-209 split-firefly-luciferase fusion (human, UniProt Q07817 113-209); test: split-luciferase complementation in HEK293T cells, reassembly induced by ABT-263
T2 construct: not shown: split firefly luciferase half (NFluc or CFluc) with any linker
T2 sequence (Q07817 113-209): as the sequence (Q07817 113-209 R139A, one chain of several) above, with A27R counted along it
Description: Fold change is indicated as a measure of small-molecule dependence of the luminescence.
as §1

Molecule: CN(C)CC#Cc1ccc(OCCCc2sc(N3CCc4cccc(C(=O)Nc5nc6ccccc6s5)c4C3)nc2C(=O)O)c(F)c1 [A-1155463]
split-luciferase signal, difference between Bcl-xL WT and R139A in ligand-induced reassembly [1]: preferential binding for wild-type C-Bcl-XL 113-209 over the R139A mutant | ligand-induced reassembly (induced dimerization) of Bcl-xL 209 R139A (Bcl-xL 209 R139A): did not induce significant reassembly | binding affinity to Bcl-xL (Bcl-xL): sub-nanomolar | global tyrosine phosphorylation [2]: significant increases in global tyrosine phosphorylation

Molecule: CC1(C)CCC(c2ccc(Cl)cc2)=C(CN2CCN(c3ccc(C(=O)NS(=O)(=O)c4ccc(N[C@H](CCN5CCOCC5)CSc5ccccc5)c(S(=O)(=O)C(F)(F)F)c4)cc3)CC2)C1 [ABT-263]
split-luciferase signal, difference between Bcl-xL WT and R139A in ligand-induced reassembly [1]: respond similarly; also recorded: no significant difference | global tyrosine phosphorylation [2]: significant increases in global tyrosine phosphorylation | intensity of induced phosphorylation compared to A-1155463 and ABT-737 ([2]; split-Src controlled by split Bcl-xL): lower intensity of induced phosphorylation | phosphorylation / kinase turn-on of ABI/PYL split-Src on addition of ABT-263 with abscisic acid ([3]; fragments with abscisic acid CID plus ABT-263): lesser amount of kinase turn-on; also recorded: phosphorylation is slightly decreased

Molecule: CN(C)CC[C@H](CSc1ccccc1)Nc1ccc(S(=O)(=O)NC(=O)c2ccc(N3CCN(Cc4ccccc4-c4ccc(Cl)cc4)CC3)cc2)cc1[N+](=O)[O-] [ABT-737]
global tyrosine phosphorylation [2]: significant increases in global tyrosine phosphorylation

Molecule: CC1=CC(=O)CC(C)(C)[C@@]1(O)/C=C/C(C)=C\C(=O)O [abscisic acid]
phosphorylation / kinase activity of ABI/PYL split-Src with CID alone [3]: strong phosphorylation | phosphorylation / kinase activity of ABI/PYL split-Src with CID alone ([3]; listed as ABA): turns the kinase activity on

binding result [4]: binds
B1: N-Bcl-xL 1-112 split-firefly-luciferase fusion (α3-α4 split site) (other)
chain: MEDAKNIKKGPAPFYPLEDGTAGEQLHKAMKRYALVPGTIAFTDAHIEVNITYAEYFEMSVRLAEAMKRYGLNTNHRIVVCSENSLQFFMPVLGALFIGVAVAPANDIYNERELLNSMNISQPTVVFVSKKGLQKILNVQKKLPIIQKIIIMDSKTDYQGFQSMYTFVTSHLPPGFNEYDFVPESFDRDKTIALIMNSSGSTGLPKGVALPHRTACVRFSHARDPIFGNQIIPDTAILSVVPFHHGFGMFTTLGYLICGFRVVLMYRFEEELFLRSLQDYKIQSALLVPTLFSFFAKSTLIDKYDLSNLHEIASGGAPLSKEVGEAVAKRFHLPGIRQGYGLTETTSAILITPEGDDKPGAVGKVVPFFEAKVVDLDTGKTLGVNQRGELCVRGPMIMSGYVNNPEATNALIDKDGCGRGGSGGGGSGGGGSVDGGSGGQLDIMSQSNRELVVDFLSYKLSQKGYSWSQFSDVEENRTEAPEGTESEMETPSAINGNPSWHLADSPAVNGATGHSSSLDAREVIPMAAVKQALREAGDEFELRYRRAFSDLTSQL
notes: Expressed by transient transfection in HEK293T cells; also called N-Bcl-xL (aa 1-112)

Reference: patent US20250383339A1, “DESIGN AND APPLICATION OF NOVEL LIGAND-INDUCED SPLIT-PROTEIN SYSTEMS” (ARIZONA BOARD OF REGENTS ON BEHALF OF THE UNIVERSITY OF …, priority 2022, published 2025)
